Counter-ions that a name gives are not always drawn.
Legend:
[1] = Dynamic water adsorption (DVS) test of compound 1 solid forms; format: physicochemical; conditions: about 10 mg solid form
Experimental: About 10 mg of the solid form of the compound 1 was taken for dynamic water adsorption (DVS) test.

[2] = Stability test of salts of compound 1 (HPLC, XRD); format: physicochemical
Experimental: 30 mg of the compound was weighed and added into an 8 mL glass bottle, and then was placed under the condition of room temperature (25° C., closed), high humidity (room temperature/75% RH, open) and light (25° C. closed, white light: 5000 Lux, ultraviolet 282 μW/cm2). samples were taken on the 5th, 10th, and 30th day for detection (HPLC, XRD).

[3] = Illumination 5K lux closed, day 5
[4] = Illumination 5K lux closed, day 10

Structure (SMILES) | XRPD after DVS [1] | TRS (%) ([2]; 25° C. closed, day 5) | XPRD ([2]; 25° C. closed, day 5) | TRS (%) ([2]; 25° C. closed, day 10) | XPRD ([2]; 25° C. closed, day 10) | TRS (%) ([2]; 25° C. closed, day 30) | XPRD ([2]; 25° C. closed, day 30) | TRS (%) ([2]; 25° C./75% RH open, day 5) | XPRD ([2]; 25° C./75% RH open, day 5) | TRS (%) ([2]; 25° C./75% RH open, day 10) | XPRD ([2]; 25° C./75% RH open, day 10) | TRS (%) ([2]; 25° C./75% RH open, day 30) | XPRD ([2]; 25° C./75% RH open, day 30) | TRS (%) [2, 3] [%] | XPRD [2, 3] | TRS (%) [2, 4] [%] | XPRD [2, 4] | TRS (%) ([2]; Initial sample, day 0) | XPRD ([2]; Initial sample, day 0)
CN[C@@H](C)C(=O)N[C@H]1CN(S(=O)(=O)c2cccc(S(=O)(=O)N3CC[C@H]4CC[C@@H](C(=O)NC(c5ccccc5)c5ccccc5)N4C(=O)[C@@H](NC(=O)[C@H](C)NC)C3)c2)CC[C@H]2CCC(C(=O)NC(c3ccccc3)c3ccccc3)N2C1=O (stereo partly drawn) [XIV] | No change |  |  |  |  |  |  |  |  |  |  |  |  |  |  |  |  |  | 
CN[C@@H](C)C(=O)N[C@H]1CN(S(=O)(=O)c2cccc(S(=O)(=O)N3CC[C@H]4CC[C@@H](C(=O)NC(c5ccccc5)c5ccccc5)N4C(=O)[C@@H](NC(=O)[C@H](C)NC)C3)c2)CC[C@H]2CCC(C(=O)NC(c3ccccc3)c3ccccc3)N2C1=O (stereo partly drawn) [Compound 1 di-p-toluenesulfonate amorphous Form XVI] |  | 1.66 | Amorphous | 1.71 | Amorphous | 1.80 | Amorphous | 1.56 | Amorphous | 1.66 | Amorphous | 1.88 | Amorphous | 1.89 | Amorphous | 2.40 | Amorphous | 1.66 | Amorphous
CN[C@@H](C)C(=O)N[C@H]1CN(S(=O)(=O)c2cccc(S(=O)(=O)N3CC[C@H]4CC[C@@H](C(=O)NC(c5ccccc5)c5ccccc5)N4C(=O)[C@@H](NC(=O)[C@H](C)NC)C3)c2)CC[C@H]2CCC(C(=O)NC(c3ccccc3)c3ccccc3)N2C1=O (stereo partly drawn) [compound 1 dihydrochloride amorphous form V] | No change | 0.72 | Amorphous | 0.77 | Amorphous | 0.83 | Amorphous | 0.81 | Amorphous | 0.77 | Amorphous | 0.79 | Amorphous | 1.81 | Amorphous | 2.54 | Amorphous | 0.73 | Amorphous
CN[C@@H](C)C(=O)N[C@H]1CN(S(=O)(=O)c2cccc(S(=O)(=O)N3CC[C@H]4CC[C@@H](C(=O)NC(c5ccccc5)c5ccccc5)N4C(=O)[C@@H](NC(=O)[C@H](C)NC)C3)c2)CC[C@H]2CCC(C(=O)NC(c3ccccc3)c3ccccc3)N2C1=O (stereo partly drawn) [compound 1 disulfate amorphous form XXIII] |  | 2.45 | Amorphous | 2.72 | Amorphous | 4.83 | Amorphous | 2.69 | Amorphous | 3.14 | Amorphous | 5.13 | Amorphous | 3.66 | Amorphous | 5.50 | Amorphous | 1.96 | Amorphous
CN[C@@H](C)C(=O)N[C@H]1CN(S(=O)(=O)c2cccc(S(=O)(=O)N3CC[C@H]4CC[C@@H](C(=O)NC(c5ccccc5)c5ccccc5)N4C(=O)[C@@H](NC(=O)[C@H](C)NC)C3)c2)CC[C@H]2CCC(C(=O)NC(c3ccccc3)c3ccccc3)N2C1=O (stereo partly drawn) [Compound 1 dimethanesulfonate crystalline Form XVIII] | No change | 2.51 | Crystalline Form | 2.57 | Crystalline | 2.55 | Crystalline |  |  |  |  |  |  | 2.63 | Crystalline | 2.64 | Crystalline | 2.44 | Crystalline

— US12630553B2 (Ascentage Pharma (Suzhou) Co., Ltd., priority 2020, dated 2026)
